Experimental data published in patent US10435399B2, “HDAC6 inhibitory heterocyclic compound” (TAKEDA PHARMACEUTICAL COMPANY LIMITED, priority 2017, dated 2019).

target: T1, HDAC6 enzyme (Homo sapiens, UniProt Q9UBN7); experiment: HDAC6 enzyme inhibitory activity (HDAC-Glo I/II Assay kit); format: biochemical; details: 10 μM; wells without enzyme = 100% inhibition
T1 construct: transducing full length HDAC6 gene into Sf-9 insect cells; GST; purchased SignalChem; host or cells: Sf-9 insect cells
T1 sequence (Q9UBN7 1-1215): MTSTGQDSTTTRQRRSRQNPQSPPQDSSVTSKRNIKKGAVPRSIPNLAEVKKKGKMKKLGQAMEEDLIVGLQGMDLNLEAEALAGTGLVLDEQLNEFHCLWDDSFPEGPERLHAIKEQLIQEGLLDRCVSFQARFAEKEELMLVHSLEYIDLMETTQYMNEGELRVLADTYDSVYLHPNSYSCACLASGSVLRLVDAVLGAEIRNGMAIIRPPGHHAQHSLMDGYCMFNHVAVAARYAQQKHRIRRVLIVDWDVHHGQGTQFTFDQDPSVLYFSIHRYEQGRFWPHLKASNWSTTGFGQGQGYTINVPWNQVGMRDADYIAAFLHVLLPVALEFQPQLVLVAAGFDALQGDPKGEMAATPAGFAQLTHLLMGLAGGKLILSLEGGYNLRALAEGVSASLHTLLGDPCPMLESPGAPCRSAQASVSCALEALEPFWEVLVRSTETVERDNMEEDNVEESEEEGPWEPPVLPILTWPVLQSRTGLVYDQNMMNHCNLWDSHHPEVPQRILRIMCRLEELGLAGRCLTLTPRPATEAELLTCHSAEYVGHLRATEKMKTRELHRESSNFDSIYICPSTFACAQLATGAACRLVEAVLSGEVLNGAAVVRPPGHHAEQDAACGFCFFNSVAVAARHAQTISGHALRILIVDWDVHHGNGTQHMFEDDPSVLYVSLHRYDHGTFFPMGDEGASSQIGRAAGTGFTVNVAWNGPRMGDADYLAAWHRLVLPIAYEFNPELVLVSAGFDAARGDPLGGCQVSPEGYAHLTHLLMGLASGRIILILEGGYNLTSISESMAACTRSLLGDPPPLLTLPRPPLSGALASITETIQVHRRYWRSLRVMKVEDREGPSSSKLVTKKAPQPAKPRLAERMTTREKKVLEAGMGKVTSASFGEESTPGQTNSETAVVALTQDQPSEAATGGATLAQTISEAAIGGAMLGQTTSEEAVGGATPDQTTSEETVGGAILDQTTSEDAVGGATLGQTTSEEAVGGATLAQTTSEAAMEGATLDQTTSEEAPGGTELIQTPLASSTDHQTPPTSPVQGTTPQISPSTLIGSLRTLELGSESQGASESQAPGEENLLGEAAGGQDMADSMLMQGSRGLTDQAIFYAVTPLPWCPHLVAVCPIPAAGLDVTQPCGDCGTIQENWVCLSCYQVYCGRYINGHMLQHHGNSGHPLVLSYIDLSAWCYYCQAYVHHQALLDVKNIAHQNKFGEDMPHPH
Outline: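 Full-length human HDAC6 (GST-purified, Sf-9 expressed) preincubated with compound 60 min at room temperature in Tris-HCl pH 7.5 buffer with MgCl2, KCl, NaCl, glutathione, Tween-20. HDAC-Glo I/II substrate-developer then added, 20 min room temperature, luminescence read. Inhibition relative to no-enzyme wells as 100%.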

Row | Structure (SMILES) | HDAC6 inhibitory rate (%) (10 μM)
1 | COC(=O)N1CC[C@@H](c2ccc(F)cc2)[C@H](N2Cc3ccc(-c4nnc(C(F)F)o4)cc3C2=O)C1 (relative stereo) [Example 545, methyl (3S*,4S*)-3-(6-(5-(difluoromethyl)-1,3,4-oxadiazol-2-yl)-1-oxo-1,3-dihydro-2H-isoindol-2-yl)-4-(4-fluorophenyl)piperidine-1-carboxylate (optical isomer)] | 100%

same assay, conditions: 10 μM; wells without enzyme = 100% inhibition; read-out: HDAC6 inhibitory rate (%) (10 μM)

Row | Structure (SMILES) | inhibition at 10 µM
2 | O=C(N[C@@H]1CCCC[C@H]1N1Cc2ncc(-c3nnc(C(F)F)o3)cc2C1=O)c1ccccn1 [Example 164, N-((1R,2R)-2-(3-(5-(difluoromethyl)-1,3,4-oxadiazol-2-yl)-5-oxo-5,7-dihydro-6H-pyrrolo[3,4-b]pyridin-6-yl)cyclohexyl)pyridine-2-carboxamide] | 99%
3 | O=C(N[C@@H]1CCCC[C@H]1N1Cc2ccc(-c3nnc(C(F)F)o3)cc2C1=O)[C@H]1CCOC1 [Example 114, (3S)-N-((1R,2R)-2-(6-(5-(difluoromethyl)-1,3,4-oxadiazol-2-yl)-1-oxo-1,3-dihydro-2H-isoindol-2-yl)cyclohexyl)tetrahydrofuran-3-carboxamide] | 100%
4 | COC(=O)N[C@@H]1CCCC[C@H]1N1Cc2ccc(-c3nnc(C(F)F)o3)cc2C1=O [Example 10, methyl((1R,2R)-2-(6-(5-(difluoromethyl)-1,3,4-oxadiazol-2-yl)-1-oxo-1,3-dihydro-2H-isoindol-2-yl)cyclohexyl)carbamate] | 99%
5 | O=C(NCC(F)F)C1CC(F)(F)CCN1N1Cc2ccc(-c3nnc(C(F)F)o3)cc2C1=O (stereo not drawn) [Example 623, N-(2,2-difluoroethyl)-1-(6-(5-(difluoromethyl)-1,3,4-oxadiazol-2-yl)-1-oxo-1,3-dihydro-2H-isoindol-2-yl)-4,4-difluoropiperidine-2-carboxamide] | 100%
6 | O=C1c2cc(-c3nnc(C(F)F)o3)ccc2CN1[C@@H]1CCCC[C@H]1NC(=O)C1(C(F)(F)F)CC1 [Example 32, N-((1R,2R)-2-(6-(5-(difluoromethyl)-1,3,4-oxadiazol-2-yl)-1-oxo-1,3-dihydro-2H-isoindol-2-yl)cyclohexyl)-1-(trifluoromethyl)cyclopropanecarboxamide] | 101%
7 | O=C1c2cc(-c3nnc(C(F)F)o3)cnc2CN1Cc1cccc(Br)c1 [Example 428, 6-(3-bromo-benzyl)-3-(5-(difluoro-methyl)-1,3,4-oxadiazol-2-yl)-6,7-dihydro-5H-pyrrolo [3,4-b] pyridin-5-one] | 99%
8 | Cc1ccc(C2CCCCN2N2Cc3ccc(-c4nnc(C(F)F)o4)cc3C2=O)cn1 (stereo not drawn) [Example 630, 6-(5-(difluoromethyl)-1,3,4-oxadiazol-2-yl)-2-(2-(6-methylpyridin-3-yl)piperidin-1-yl)isoindolin-1-one] | 100%
9 | O=C1c2cc(-c3nnc(C(F)F)o3)cnc2CN1Cc1cccc(OC(F)(F)F)c1 [Example 432, 3-(5-(difluoro-methyl)-1,3,4-oxadiazol-2-yl)-6-(3-(trifluoro-methoxy)benzyl)-6,7-dihydro-5H-pyrrolo[3,4-b] pyridin-5-one] | 94%
10 | C[C@](O)(C(=O)N[C@@H]1CCCC[C@H]1N1Cc2ccc(-c3nnc(C(F)F)o3)cc2C1=O)C(F)(F)F [Example 103, (2S)-N-((1R,2R)-2-(6-(5-(difluoromethyl)-1,3,4-oxadiazol-2-yl)-1-oxo-1,3-dihydro-2H-isoindol-2-yl)cyclohexyl)-3,3,3-trifluoro-2-hydroxy-2-methylpropanamide] | 98%
11 | O=C1c2cc(-c3nnc(C(F)F)o3)cnc2CN1Cc1ccccc1OC(F)F [Example 358, 6-(2-(difluoromethoxy)-benzyl)-3-(5-(difluoro-methyl)-1,3,4-oxadiazol-2-yl)-6,7-dihydro-5H-pyrrolo-[3,4-b]pyridin-5-one] | 102%
12 | O=C(N[C@@H]1CCCC[C@H]1N1Cc2ccc(-c3nnc(C(F)F)o3)cc2C1=O)[C@@H]1CCOC1 [Example 94] | 100%
13 | Cn1cc(C(=O)N[C@@H]2CCCC[C@H]2N2Cc3ccc(-c4nnc(C(F)F)o4)cc3C2=O)cn1 [Example 97, N-((1R,2R)-2-(6-(5-(difluoromethyl)-1,3,4-oxadiazol-2-yl)-1-oxo-1,3-dihydro-2H-isoindol-2-yl)cyclohexyl)-1-methyl-1H-pyrazole-4-carboxamide] | 100%
14 | O=C1c2cc(-c3nnc(C(F)F)o3)ccc2CN1[C@@H]1CCCC[C@H]1NC(=O)C1(O)CCC1 [Example 76, N-((1R,2R)-2-(6-(5-(difluoromethyl)-1,3,4-oxadiazol-2-yl)-1-oxo-1,3-dihydro-2H-isoindol-2-yl)cyclohexyl)-1-hydroxycyclobutanecarboxamide] | 101%
15 | Cn1cc(C(=O)N2CCC(F)(F)CC2)c(N2Cc3ccc(-c4nnc(C(F)F)o4)cc3C2=O)n1 [Example 569, 6-(5-(difluoromethyl)-1,3,4-oxadiazol-2-yl)-2-(4-((4,4-difluoropiperidin-1-yl)carbonyl)-1-methyl-1H-pyrazol-3-yl)isoindolin-1-one] | 99%
16 | CC(F)(F)C(=O)N[C@@H]1[C@H](N2Cc3ccc(-c4nnc(C(F)F)o4)cc3C2=O)CCCC1(F)F [Example 626, N-((1R,6R)-6-(6-(5-(difluoromethyl)-1,3,4-oxadiazol-2-yl)-1-oxo-1,3-dihydro-2H-isoindol-2-yl)-2,2-difluorocyclohexyl)-2,2-difluoropropanamide] | 100%
17 | O=C(N[C@@H]1CCCC[C@H]1N1Cc2ncc(-c3nnc(C(F)F)o3)cc2C1=O)c1ccccc1F [Example 222, N-((1R,2R)-2-(3-(5-(difluoromethyl)-1,3,4-oxadiazol-2-yl)-5-oxo-5,7-dihydro-6H-pyrrolo[3,4-b]pyridin-6-yl)cyclohexyl)-2-fluorobenzamide] | 99%
18 | O=C(CCC(F)F)N[C@@H]1CCCC[C@H]1N1Cc2ccc(-c3nnc(C(F)F)o3)cc2C1=O [Example 64, N-((1R,2R)-2-(6-(5-(difluoromethyl)-1,3,4-oxadiazol-2-yl)-1-oxo-1,3-dihydro-2H-isoindol-2-yl)cyclohexyl)-4,4-difluorobutanamide] | 100%
19 | O=C1c2cc(-c3nnc(C(F)F)o3)ccc2CN1Cc1ccc(C(F)(F)F)cc1 [Example 59, 6-(5-(difluoromethyl)-1,3,4-oxadiazol-2-yl)-2-(4-(trifluoromethyl)benzyl)isoindolin-1-one] | 94%
20 | O=C1c2cc(-c3nnc(C(F)F)o3)ccc2CN1[C@@H]1CCNC[C@@H]1c1ccccc1 [Example 126, 6-(5-(difluoromethyl)-1,3,4-oxadiazol-2-yl)-2-((3S,4R)-3-phenylpiperidin-4-yl)isoindolin-1-one] | 100%
21 | O=C1c2cc(-c3nnc(C(F)F)o3)cnc2CN1[C@@H]1CCCC[C@H]1Oc1ccc(F)cc1 (relative stereo) [Example 551, 3-(5-(difluoromethyl)-1,3,4-oxadiazol-2-yl)-6-((1R*,2R*)-2-(4-fluorophenoxy)cyclohexyl)-6,7-dihydro-5H-pyrrolo[3,4-b]pyridin-5-one (optical isomer)] | 99%
22 | O=C1c2cc(-c3nnc(C(F)F)o3)cc(F)c2CN1C[C@H]1COCCN1S(=O)(=O)C1CC1 [Example 197, 2-(((3S)-4-(cyclopropylsulfonyl)morpholin-3-yl)methyl)-6-(5-(difluoromethyl)-1,3,4-oxadiazol-2-yl)-4-fluoroisoindolin-1-one] | 100%
23 | N[C@H]1[C@H](N2Cc3ccc(-c4nnc(C(F)F)o4)cc3C2=O)CCCC1(F)F [Example 511, 2-((1R,2S)-2-amino-3,3-difluorocyclohexyl)-6-(5-(difluoromethyl)-1,3,4-oxadiazol-2-yl)isoindolin-1-one] | 95%
24 | N#Cc1cccc(-c2c(Cl)cccc2N2Cc3ccc(-c4nnc(C(F)F)o4)cc3C2=O)c1 [Example 401, 2′-chloro-6′-(6-(5-(difluoro-methyl)-1,3,4-oxadiazol-2-yl)-1-oxo-1,3-dihydro-2H-isoindol-2-yl) biphenyl-3-carbonitrile] | 99%
